# Laboratory results: US12466816B2, “Fused cyclic compound capable of degrading protein and use thereof” (Medshine Discovery Inc., priority 2019, dated 2025)
# What was measured:
# Assay type in all cases: cell-based
# [1] = tested on: tumor cell lines; assay: Cell experiment: CCK-8 growth inhibition of tumor cell lines; conditions: 72 hours, hematological tumor cells and some liver cancer cells, read-out: growth inhibitory effect (inhibition rate)
# Protocol: Different cells were seeded in 96-well plates (the density of adherent cells was 1,000/well and the density of suspension cells was 10,000/well), 10 μM of WX106 was added for 72 hours of action, and CCK-8 reagent (Meilun Biotechnology, MA0218-L) was added for 2 hours of reaction thereafter; and the plate was then read with a microplate reader (SpectraMax i3) and the inhibition rate was calculated. Inhibition rate=[(Ac−As)/(Ac−Ab)]×100% (where As represents the absorbance of experimental wells, Ac represents the absorbance of control wells, and Ab represents the absorbance of blank wells).
# Eighteen tumor cell lines were treated with 10 μM of WX106 for 72 hours, and the rate of inhibition of cell growth by WX106 was calculated.
# [2] = tested on: colorectal cancer cells and brain tumor cell lines; assay: Clone formation experiment; conditions: 10 μM; some colorectal cancer cells and brain tumor cell lines
# Protocol: The effect of the compound on the monoclone-formation capacity of cells was examined. Cells were seeded in 6-well plates at low density (about 500 cells per well), 10 μM of WX106 was added for treatment, crystal violet staining (Beyotime Biotechnology, C0121) was performed when the cells grew into clones visible to the naked eye, and the number of clones was counted. All treatments were performed in at least three replicates.
# [3] = tested on: Hep3B cells; assay: Sensitivity of wild-type versus CRBN KO cells to WX106 (CCK-8); conditions: 10 μM, 72 h
# Protocol: (§1) The sgRNA sequence targeting CRBN was inserted into lenti Crispr V2 plasmid, the virus was co-packaged with the packaging vectors psPAX2 and pVSVG, and the cells were infected; screening was performed with puromycin (Invitrogen, A1113803) and the knockout of CRBN was identified by Western blot; finally, the cell growth was detected to calculate the survival rate.
# WX106 (10 μM) was added to wild-type Hep3B cells and Hep3B CRBN KO (knockout) hybrid clone cells, respectively, and cell proliferation was detected by CCK-8 after 72 h.
# [4] = tested on: Hep3B and SNU182 cells; assay: Growth curves of stable CRBN knockout cell lines (pool); conditions: 10 μM
# Protocol: as §1
# Stable CRBN knockout cell lines (pool) were established in Hep3B and SNU182 cells, respectively, and treated with WX106 (10 μM) or solvent; the growth of cells was detected at different time points and the growth curves were drawn.
# [5] = biological target: T1, CK1α (Homo sapiens, UniProt P48729); assay: Detection of protein degradation by the drug (Western blot); conditions: MOLT-4 cells
# T1 construct: endogenous in cells; host or cells: MOLT-4
# [6] = biological target: CRBN (Homo sapiens, UniProt Q96SW2); assay: Protein degradation competition experiment (CC885-induced GSPT1 degradation); design: endogenous in cells; host or cells: MOLT-4; conditions: MOLT-4 cells, co-treated with 10 nM CC885, 4 hours, Western blot
# Protocol: MOLT-4 cells were co-treated with 0.1, 1 and 10 μM of WX106 and 10 nM of CC885 for 4 hours, and the protein level of GSPT1 was then detected by Western blot, with Poma (Pomalidomide, Selleck, S1567) acting as the positive control in the experiment. Cells were collected and denatured in protein loading buffer (50 mM Tris-HCL 2% SDS, 0.025% BPB, 1% β-mercaptoethanol, 10% glycerol) at 98° C. for 10 min. Proteins were separated by SDS-PAGE and transferred to a PVDF membrane (Millipore, IPVH00010), blocked with 5% skim milk (dissolved in TBST buffer), incubated with a primary antibody overnight at 4° C., and then incubated with a secondary antibody (Anti-rabbit IgG, HRP-linked Antibody, Cell Signaling, 7074S) at room temperature for 1 hour, and the bands on the membrane were detected by chemiluminescence (ECL chemiluminescence kit, Beyotime Biotechnology, P0018AM).
# [7] = biological target: T2, Wee1 (Homo sapiens, UniProt P30291); assay: Label-free quantitative mass spectrometry for proteomic analysis; design: endogenous in cells; host or cells: MOLT-4; conditions: MOLT-4, 10 μM WX106 (10 μM MG132 where added), 6 hours, replicates
# Protocol: There are three treatment methods for the selected MOLT-4 cells; one is to directly add DMSO as a control, the other is to add 10 μM WX106, and the third is to add 10 μM WX106 and 10 μM MG132 (proteasome inhibitor; APEXBIO, A2585 and MG132 are capable of blocking ubiquitin-mediated protein degradation). Two replicates were prepared for the 10 μM WX106 plus 10 μM MG132 group, and three replicates were prepared for the DMSO control group and 10 μM WX106 administration group, respectively. The drug treatment time for MOLT-4 was 6 hours. Mass spectrometry samples were prepared based on the basic steps of urea cleavage, reductive alkylation, desalting, and lyophilization. The prepared samples were subjected to two-hour gradient analysis on a Q Exactive HF mass spectrometer, followed by data analysis.
# [8] = biological target: T2, Wee1; assay: Detection of compounds that degrade Wee1 protein (Western blot); design: endogenous in cells; host or cells: MOLT-4, U87-MG; conditions: MOLT-4 cells 10 μM 4 hours, U87-MG cells 1 μM 24 hours
# Protocol: MOLT-4 cells were treated with 10 μM of the test compound for 4 hours and U87-MG cells were treated with 1 μM of the test compound for 24 hours, respectively. With GAPDH (Santa Cruz, sc-32233) as the internal reference protein, the protein level of Wee1 (Cell Signaling, 13084S) was detected using Western blot. Cells were collected, lysed with protein loading buffer (1M Tris-HCl, 10% SDS, 0.025% BPB), and denatured at 98° C. for 10 min before Western blot analysis. The main steps include: 1) Electrophoresis: The protein was separated by SDS-PAGE electrophoresis. During the electrophoresis, the voltage was adjusted to 80 v for about 30 min, and then the voltage was adjusted to 120 v until the bromophenol blue ran out of the gel. 2) Transfer to a membrane: the gel was stuck to a methanol-activated PVDF membrane using the method of wet transfer, and after the top and bottom layers were wrapped with filter paper, the membrane was placed into the gel holder cassette and fixed to the transfer tank, and transfer was performed at a constant current of 250 mA for 90 min; 3) Blocking: the PVDF membrane with trace protein was placed into the antibody incubation box, 5% skim milk was added to completely cover the PVDF membrane, and incubation was performed for 1 hour on a shaker at room temperature; 4) Incubation of the primary antibody: the primary antibody was prepared with 5% BSA (1:1000) and incubated overnight on a shaker at 4° C.; 5) Incubation of the secondary antibody: the membrane was washed thrice with TBST, the secondary antibody (prepared with 5% skim milk) was added (according to the species source of the primary antibody, different secondary antibodies with a dilution range of 1:3000-1:10000 were used), and incubation was performed on a shaker at room temperature for one hour; 5) Exposure: the membrane was washed thrice with TBST and the bands on the membrane were detected by chemiluminescence.
smiles,measurement,setting,value
Cc1ccc(C(=O)Nc2ccc3occ(C4CCC(=O)NC4=O)c3c2)cc1Cl (stereo not shown) [WX106],inhibition at 10 µM,[1],> 50%
same,clone formation,[2],inhibits clone formation
same,sensitivity of cells to WX106 after CRBN knockout,[3],significantly reduced
same,sensitivity of cells with normal CRBN expression (growth curve),[4]; Hep3B and SNU182,very sensitive
same,growth rate of low-CRBN-expression cells compared with the solvent group,[4]; Hep3B and SNU182 CRBN knockout pools,no significant difference
same,pro-degradation effect on CK1α,[5],no significant pro-degradation effect
same,effect on degradation of GSPT1 induced by CC885,[6],reversed
same,Wee1 LFQ intensity,[7],0
same,pro-degradation effect on Wee1,[8],pro-degradation effect on Wee1
same,relative strength of the pro-degradation effect on Wee1,[8]; among tested compounds,the strongest
